According to PubChem BioAssay (NCI):
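Growth conditions: 96-well plates. Treatment: test compound, 48 hours, 5 concentrations. Analysis: linear interpolation between bracketing concentrations; unreached endpoints set to highest concentration. TGI denotes the concentration required for complete inhibition of growth.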 Where a SMILES comes first, the peptide text is derived from it.

Legend:
Test in all cases: NCI tumour cell line growth inhibition, 48 h
CCRF-CEM leukemia = system: CCRF-CEM leukemia
HCT-15 colon = system: HCT-15 colon
HOP-62 NSCLC = system: HOP-62 NSCLC
LOX IMVI melanoma = system: LOX IMVI melanoma
M14 melanoma = system: M14 melanoma
MDA-N = system: MDA-N
NCI-H460 lung = system: NCI-H460 lung
OVCAR-8 ovarian = system: OVCAR-8 ovarian
SF-295 CNS = system: SF-295 CNS
UACC-62 melanoma = system: UACC-62 melanoma

| SMILES | TGI (CCRF-CEM leukemia) | TGI (HCT-15 colon) | TGI (HOP-62 NSCLC) | TGI (LOX IMVI melanoma) | TGI (M14 melanoma) | TGI (MDA-N) | TGI (NCI-H460 lung) | TGI (OVCAR-8 ovarian) | TGI (SF-295 CNS) | TGI (UACC-62 melanoma) |
| --- | --- | --- | --- | --- | --- | --- | --- | --- | --- | --- |
| Cc1ccc(C2(N3CCOCC3)OC(C)(C)c3cccc4cccc2c34)cc1 (centres undefined) | 65.7 µM | 40 µM | 32.9 µM | 31 µM | 32.7 µM | 34.1 µM | 30.2 µM | 33.6 µM | 33.6 µM | 27.8 µM |
| CC(=O)c1cc(S(=O)(=O)c2ccc(O)c(C(C)=O)c2)ccc1O | > 100 µM | > 100 µM | > 100 µM | > 100 µM | > 100 µM | > 100 µM | > 100 µM | > 100 µM | > 100 µM | > 100 µM |
| CCn1c(SCc2nnc(Nc3ccccc3)s2)nc2ccccc2c1=O | > 85.7 µM | > 100 µM | 12.5 µM | 25.4 µM | > 61.4 µM | > 52.1 µM | 4.77 µM | 5.09 µM | 6.87 µM | 11.9 µM |
| COC(C[C@H]1CCCC[C@]1(O)/C(=C\CO[Si](C(C)C)(C(C)C)C(C)C)Sc1ccccc1)OC | > 100 µM | 60 µM | > 100 µM | 37.5 µM | > 100 µM | > 100 µM | > 100 µM | > 100 µM | > 100 µM | > 100 µM |
| O=C1c2ccccc2C2(c3ccc(Cl)cc3)N[C@@H]3CCCC[C@@H]3N12 (some centres undefined) | > 100 µM | > 100 µM | > 100 µM | > 100 µM | > 100 µM | > 100 µM | > 100 µM | > 100 µM | > 100 µM | > 100 µM |
| CCCOC1OC(CS(=O)(=O)O)C(OC(C)=O)C(OC(C)=O)C1OC(C)=O (centres undefined) | > 100 µM | > 100 µM | > 100 µM | > 100 µM | > 100 µM | > 100 µM | > 100 µM | > 100 µM | > 100 µM | > 100 µM |
| CN1CCCC(OC(=O)c2cc3cc(CCl)ccc3oc2=O)C1 (centres undefined) | 55 µM | 51.9 µM | 67.7 µM | 34.3 µM | 39.3 µM | 46 µM | 44.9 µM | > 100 µM | 77.9 µM | 31.6 µM |
| O=C(O)c1cc(Nc2c(O)c3c(c(O)c2Cl)C(=O)C=CC3=O)ccc1O | > 10 µM | > 10 µM | > 10 µM | > 10 µM | > 10 µM | > 10 µM | > 10 µM | > 10 µM | > 10 µM | > 10 µM |
| COC(=O)NC(Nc1ccc(C)cc1)(C(F)(F)F)C(F)(F)F | > 100 µM | > 100 µM | > 100 µM | > 100 µM | > 100 µM | > 100 µM | > 100 µM | > 100 µM | > 100 µM | > 100 µM |
| CCOC(=O)c1nc2ccccc2nc1Nc1ccc(F)cc1 | > 100 µM | > 100 µM | 38.2 µM | > 100 µM | > 100 µM | > 100 µM | > 100 µM | 32 µM | 28.9 µM | > 100 µM |
| CCC(C)C(NC(=O)C1CCCN1)C(=O)NC(C(=O)NCC(=O)NC(CC(N)=O)C(=O)NC(CC(C)C)C(=O)NC(CC(C)C)C(=O)NC(CCCCN)C(N)=O)C(C)C (centres undefined) (H-PIVGNLLK-NH2; configuration not given here) | > 75 µM | > 75 µM | > 75 µM | > 75 µM | > 75 µM | > 75 µM |  | > 75 µM | > 75 µM | > 75 µM |
| C#Cc1cccc(Nc2ncnc3cc(OCCOC)c(OCCOC)cc23)c1 | > 100 µM | > 100 µM | 59.7 µM | > 100 µM | > 100 µM | > 100 µM | > 91.4 µM | > 93.3 µM | 67.6 µM | 38 µM |
| Nc1cc2ncnc(Nc3cccc(Br)c3)c2cn1 | > 100 µM | > 100 µM | > 100 µM | > 100 µM | > 100 µM | > 100 µM | > 100 µM | > 100 µM | 71.8 µM | > 100 µM |
| O=C1/C(=C(/Br)I)c2ccccc2-c2ccccc21 | 5.93 µM | 16.6 µM | 36.6 µM | 12.2 µM | 27.6 µM | 9.78 µM | 41.2 µM | 31.5 µM | 31.4 µM | 21.2 µM |
| CCOc1ccccc1N=NC1C(=O)N(C(=O)CC(=O)Nc2ccccc2OC)N=C1C (centres undefined) | > 100 µM | 79.8 µM | 39.4 µM | > 100 µM | > 100 µM | > 100 µM | > 100 µM | > 100 µM | 55.6 µM | > 100 µM |
| CC(=O)Nc1nc(C)c(S(=O)(=O)NC(=O)N2c3ccccc3CCc3ccccc32)s1 | > 100 µM | > 100 µM | > 100 µM | > 100 µM | > 100 µM | > 100 µM | > 100 µM | > 100 µM | > 100 µM | > 100 µM |
| C=C1CC(Cn2cc(Br)c(=O)[nH]c2=O)(c2ccc(Br)cc2)OC1=O (centres undefined) | 5.26 µM | 3.85 µM | 31 µM | 3.64 µM | 3.22 µM | 7.46 µM | 35.6 µM | > 100 µM | 31 µM | 9.46 µM |
| O=C(O)Cn1ncn(NC(=O)Cc2ccccc2)c1=S | > 10 µM | > 10 µM | > 10 µM | > 10 µM | > 10 µM | > 10 µM | > 10 µM | > 10 µM | > 10 µM | > 10 µM |
| CCOC(=O)c1c(SCCN2CCCCC2)n(-c2ccccc2)c(=S)n(-c2ccccc2)c1=O | 11.8 µM | 9.82 µM | 40.8 µM | 26.2 µM | 81.6 µM | 36.9 µM | > 100 µM | 54.1 µM | > 100 µM | 68.9 µM |
| O=C1CCc2cc3c(cc21)C(C(=O)O)CC3 (centres undefined) | > 100 µM | > 100 µM | > 100 µM | > 100 µM | > 100 µM | > 100 µM | > 100 µM | > 100 µM | > 100 µM | > 100 µM |
| CCC(=O)Nc1ccc(N2C(=O)/C(=C/c3ccc(O)c(OC)c3)N=C2c2ccccc2)cc1 | > 100 µM | > 100 µM | > 100 µM | > 100 µM | > 100 µM | > 100 µM | > 100 µM | > 100 µM | > 100 µM | > 100 µM |
| CC(=O)NCC1OC2COC(c3ccccc3)OC2C2N=C(c3ccccc3)OC12 (centres undefined) | > 100 µM | > 100 µM | > 100 µM | > 100 µM | > 100 µM | > 100 µM | > 100 µM | > 100 µM | > 100 µM | > 100 µM |
| CC(C)CCCC(C)[C@H]1CC[C@H]2NCCCC[C@]12C (some centres undefined) | 4.16 µM | 6.91 µM | 29.1 µM | 4.23 µM | 4.29 µM | 3.99 µM | 4.25 µM | > 25.4 µM | 5.2 µM | 3.91 µM |
| O=P1(N(CCCl)CCCl)NCCCO1 (centres undefined) | 213 µM | > 250 µM | > 250 µM | > 250 µM | > 250 µM | > 250 µM | > 238 µM | > 238 µM | > 246 µM | > 250 µM |
| Cc1cn([C@@H]2C[C@](C)(CO)N(C)O2)c(=O)[nH]c1=O | > 100 µM | > 100 µM | > 100 µM | > 100 µM | > 100 µM | > 100 µM | > 100 µM | > 100 µM | > 100 µM | > 100 µM |
| Cc1cc2nc3c(N)nn(CCN(C)C)c3nc2cc1C | > 100 µM | > 100 µM | > 100 µM | 76.2 µM | > 100 µM | > 100 µM | > 100 µM | > 100 µM | > 100 µM | > 100 µM |
